Assay results as given in US11865176B2, “Compositions and methods of modulating anti-tumor immunity” (Dana-Farber Cancer Institute, Inc., priority 2016, dated 2024).

Test system: PD-1-overexpressing Jurkat cells
Assay: Small molecule screen: IL2 secretion (AlphaLISA) from stimulated PD-1-overexpressing Jurkat cells
Type: cell-based, human
Settings: 3.3 μM compound; for Zscore_1 / Zscore_2: IL2 level, α-CD3/α-CD28/α-PD-1 beads; for Zscore_1: replicate 1; for Zscore_2: replicate 2; for Zscore_AVG: average of replicate Z scores
How it was run: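 Cells (100,000/well) with compound at 3.3 μM final, stimulated by α-CD3/α-CD28/α-PD-1 Dynabeads at an 8:1 bead:cell ratio. IL2 in supernatants measured by AlphaLISA. Hits scored ≥3 SD from the mean of DMSO-treated, α-PD-1-bead-stimulated controls.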

COc1ccc(-c2cnc3c(-c4ccsc4)cnn3c2)cc1 [VEGF Receptor 2 Kinase Inhibitor IV]
Zscore_1: −1.795
Zscore_2: 1.512
Zscore_AVG: −0.1417

VEGFR Tyrosine Kinase Inhibitor IV
Zscore_1: −0.8723
Zscore_2: −2.305
Zscore_AVG: −1.589

GTP-14564
Zscore_1: −0.5638
Zscore_2: 2.605
Zscore_AVG: 1.021

PI 3-K&gamme;/CKII Inhibitor
Zscore_1: −0.8209
Zscore_2: −0.5789
Zscore_AVG: −0.6999

CCN1/C(=C/C(C)=O)Sc2ccc(OC)cc21 [Cdc2-Like Kinase Inhibitor, TG003]
Zscore_1: −1.367
Zscore_2: −2.423
Zscore_AVG: −1.895

O=C1Nc2ccc(I)cc2/C1=C1/Nc2ccccc2/C1=N\O [Indirubin-3′-monoxime, 5-Iodo-]
Zscore_1: 10.18
Zscore_2: 17.16
Zscore_AVG: 13.67

N#C/C(=C/c1ccc(O)c(O)c1)C(=O)NCc1ccccc1 [AG 490]
Zscore_1: −2.645
Zscore_2: 0.2008
Zscore_AVG: −1.222

NC(=O)c1ccc2[nH]ccc2c1 [p38 MAP Kinase Inhibitor VII, SD-169]
Zscore_1: 0.7558
Zscore_2: 1.067
Zscore_AVG: 0.9116

Cn1sc(=O)n(Cc2ccccc2)c1=O [GSK-3b Inhibitor I]
Zscore_1: −1.327
Zscore_2: −2.222
Zscore_AVG: −1.774

CCOc1nc(NC(=O)Cc2cc(OC)ccc2OC)cc(N)c1C#N [JNK Inhibitor VIII]
Zscore_1: −1.284
Zscore_2: −2.969
Zscore_AVG: −2.126

Cc1cc2ncc(-c3ccccc3)nc2cc1C [AG 1295]
Zscore_1: −0.2372
Zscore_2: −3.097
Zscore_AVG: −1.667

Cc1nc(N)sc1-c1ccnc(Nc2cccc([N+](=O)[O-])c2)n1 [Cdk2/9 Inhibitor]
Zscore_1: −10.43
Zscore_2: −10.59
Zscore_AVG: −10.51

COc1cc(OC)c(C=C2C(O)=Nc3ccccc32)c(OC)c1 [IC261]
Zscore_1: −0.7866
Zscore_2: −1.136
Zscore_AVG: −0.9616

COc1cc2nccc(Oc3ccc(NC(=S)NC(=O)c4ccccc4C)cc3)c2cc1OC [PDGF RTK Inhibitor]
Zscore_1: −3.239
Zscore_2: −6.099
Zscore_AVG: −4.669

Nc1nc(Nc2ccc(S(N)(=O)=O)cc2)nn1C(=O)c1c(F)cccc1F [Aurora Kinase/Cdk Inhibitor]
Zscore_1: −1.131
Zscore_2: −3.054
Zscore_AVG: −2.093

NCCNc1ncc(C(N)=O)c(Nc2cccc(C(F)(F)F)c2)n1 [Syk Inhibitor II]
Zscore_1: −0.7866
Zscore_2: −0.6851
Zscore_AVG: −0.7358

Polo-like Kinase Inhibitor I
Zscore_1: −0.8886
Zscore_2: 0.6237
Zscore_AVG: −0.1325

CC(C)n1cnc2c(Nc3cccc(Cl)c3)nc(NCCO)nc21 [Compound 52]
Zscore_1: −1.412
Zscore_2: −0.2643
Zscore_AVG: −0.8381

O=C1Cc2c([nH]c3ccc(Br)cc23)-c2ncccc2N1 [1-Azakenpaullone]
Zscore_1: 0.418
Zscore_2: 1.913
Zscore_AVG: 1.165

CC(C)c1nn(-c2c(Cl)cccc2Cl)c2nc(Cc3ccc(OCCO)cc3)[nH]c(=O)c12 [Cdk/Crk Inhibitor]
Zscore_1: −10.43
Zscore_2: −11.89
Zscore_AVG: −11.16

O=C1c2ccccc2-[n+]2ccc3c([nH]c4ccccc43)c21 [Fascaplysin, synthetic]
Zscore_1: −6.289
Zscore_2: −8.222
Zscore_AVG: −7.256

CCn1cnc2c(Nc3cccc(Cl)c3)nc(N[C@@H]3CCCC[C@@H]3N)nc21 [Cdk1 Inhibitor, CGP74514A]
Zscore_1: 1.595
Zscore_2: −1.02
Zscore_AVG: 0.2878

N#CCCc1ccc2c(c1)-c1[nH]c3ccc([N+](=O)[O-])cc3c1CC(=O)N2 [Alsterpaullone, 2-Cyanoethyl]
Zscore_1: −5.269
Zscore_2: −7.447
Zscore_AVG: −6.358

CN1C(=O)C(Cc2c[nH]c3ccccc23)NC1=S (stereo not drawn) [Necrostatin-1]
Zscore_1: −1.566
Zscore_2: 1.447
Zscore_AVG: −0.05934

CaMKII Inhibitor, CK59
Zscore_1: −0.8337
Zscore_2: −0.5161
Zscore_AVG: −0.6749

O=C1c2ccccc2-c2n[nH]c3cccc1c23 [JNK Inhibitor II]
Zscore_1: 0.4426
Zscore_2: 0.5814
Zscore_AVG: 0.512

Nc1[nH]nc2nc3ccccc3nc12 [Cdk1/5 Inhibitor]
Zscore_1: −2.414
Zscore_2: −4.695
Zscore_AVG: −3.555

NC(=O)c1cccc(-c2cc(Nc3ccc(OC(F)(F)F)cc3)ncn2)c1 [Bcr-abl Inhibitor]
Zscore_1: 1.402
Zscore_2: 5.274
Zscore_AVG: 3.338

COc1cc2ncnc(Nc3cccc(Cl)c3)c2cc1OC [AG 1478]
Zscore_1: −1.129
Zscore_2: −1.216
Zscore_AVG: −1.173

O=C1C(Cl)=C(N2C(=O)CCC2=O)C(=O)c2ccccc21 [MEK Inhibitor II]
Zscore_1: −2.22
Zscore_2: −1.364
Zscore_AVG: −1.792

CC(C)(C)c1ccc(S(=O)(=O)Nc2ccc(-n3ccnc3)cc2)cc1 [Stem-Cell Factor/c-Kit Inhibitor, ISCK03]
Zscore_1: −0.9751
Zscore_2: −0.07435
Zscore_AVG: −0.5247

C[C@@H](N)[C@H]1CC[C@H](C(=O)Nc2ccncc2)CC1 [ROCK Inhibitor, Y-27632]
Zscore_1: −3.269
Zscore_2: −4.375
Zscore_AVG: −3.822

Cc1cccc(-c2[nH]c(C(C)(C)C)nc2-c2ccc3c(c2)OCO3)n1 [TGF-b RI Inhibitor III]
Zscore_1: −0.4096
Zscore_2: −0.6585
Zscore_AVG: −0.5341

CNc1cc2c(Nc3cccc(Br)c3)ncnc2cn1 [PD 158780]
Zscore_1: 0.3787
Zscore_2: 0.8816
Zscore_AVG: 0.6302

Nc1ncnc2c1cnn2-c1ccccc1 [PP3]
Zscore_1: 0.2416
Zscore_2: 0.9081
Zscore_AVG: 0.5749

Nc1ncnc2n[nH]c(Nc3ccc(F)cc3)c12 [MNK1 Inhibitor]
Zscore_1: −2.022
Zscore_2: −0.3911
Zscore_AVG: −1.206

Nc1nc(Nc2ccc(S(N)(=O)=O)cc2)nn1C(=S)Nc1c(F)cccc1F [Cdk1/2 Inhibitor III]
Zscore_1: −10.55
Zscore_2: −11.64
Zscore_AVG: −11.1

O=C1NC(=O)C(c2cn(CCCn3ccnc3)c3ccccc23)=C1Nc1ccccc1 [PKCb Inhibitor]
Zscore_1: −3.512
Zscore_2: −5.04
Zscore_AVG: −4.276

Nc1[nH]nc2nnc(-c3c(-c4ccccc4)nn4ccccc34)cc12 [ERK Inhibitor II, FR180204]
Zscore_1: −2.073
Zscore_2: −4.806
Zscore_AVG: −3.439

CCC(=O)Nc1ccc2ncnc(Nc3cccc(Br)c3)c2c1 [PD 174265]
Zscore_1: −0.1183
Zscore_2: 0.5895
Zscore_AVG: 0.2356

O=C1NC(=O)c2c1c1c3ccccc3n3c1c1c2c2ccccc2n1C1CCC3O1 [SB 218078]
Zscore_1: −0.8723
Zscore_2: −1.561
Zscore_AVG: −1.217

COc1ccc2c(c[n+](C)c3c4cc5c(cc4ccc23)OCO5)c1OC [Chelerythrine Chloride]
Zscore_1: 0.1826
Zscore_2: 0.07537
Zscore_AVG: 0.129

CC[C@H](CO)Nc1nc(NCc2ccccc2)c2ncn(C(C)C)c2n1 [Roscovitine]
Zscore_1: −1.54
Zscore_2: −2.209
Zscore_AVG: −1.875

O=c1cc(N2CCOCC2)nc2c3ccccc3ccn12 [Compound 401]
Zscore_1: 2.829
Zscore_2: 15.49
Zscore_AVG: 9.162

PIM1 Kinase Inhibitor II
Zscore_1: −1.398
Zscore_2: −0.8562
Zscore_AVG: −1.127

O=C(Nc1cc(Cl)cc2c1[nH]c1cnccc12)c1cccnc1 [IKK Inhibitor X]
Zscore_1: −4.959
Zscore_2: −5.349
Zscore_AVG: −5.154

O=C1NC(=O)c2cc(Nc3ccc(F)cc3)c(Nc3ccc(F)cc3)cc21 [PKCbII/EGFR Inhibitor]
Zscore_1: −0.838
Zscore_2: 0.616
Zscore_AVG: −0.111

O=c1cc(N2CCNCC2)oc2c(-c3ccccc3)cccc12 [LY 303511]
Zscore_1: 1.21
Zscore_2: −0.8685
Zscore_AVG: 0.1705

O=c1cc(-c2cccc3c2Sc2ccccc2S3)oc(N2CCOCC2)c1 [ATM Kinase Inhibitor]
Zscore_1: 1.379
Zscore_2: 4.382
Zscore_AVG: 2.881

Cc1cncc2cccc(S(=O)(=O)N3CCCN(C(=O)CN)C[C@@H]3C)c12 [Rho Kinase Inhibitor IV]
Zscore_1: −5.704
Zscore_2: −5.042
Zscore_AVG: −5.373

Akt Inhibitor XII, Isozyme- Selective, Akti-2
Zscore_1: 5.536
Zscore_2: 15.29
Zscore_AVG: 10.41

O=C1Nc2ccc3ncsc3c2/C1=C/c1cnc[nH]1 [PKR Inhibitor]
Zscore_1: −7.658
Zscore_2: −8.086
Zscore_AVG: −7.872

CN(C)c1ccc(/C=C2\C(=O)Nc3ccccc32)cc1 [DMBI]
Zscore_1: −0.2169
Zscore_2: 0.4405
Zscore_AVG: 0.1118

Brc1c(Br)c(Br)c2n[nH]nc2c1Br [Casein Kinase II Inhibitor I]
Zscore_1: 0.6337
Zscore_2: 0.5348
Zscore_AVG: 0.5842

CCN(CC)CCNC(=O)c1c(C)[nH]c(/C=C2\C(=O)Nc3ccc(Cl)cc32)c1C [SU11652]
Zscore_1: 8.033
Zscore_2: −6.691
Zscore_AVG: 0.671
